Molecules are shown by their SMILES.

The subject of test [1] is normal human lung fibroblasts (NHLF), TGFβ-induced alpha-smooth muscle actin. In words: Inhibition of the myofibroblast transition of normal human lung fibroblasts (NHLF). It counts as cell-based. Particulars: Fibroblast; 1 ng/mL human TGFβ, 24 h, alpha-smooth muscle actin western blot; read-out: inhibition of NHLF myofibroblast transition pIC50 (-log IC50) (converted). On the procedure: Method for Determination of the Inhibition of the Myofibroblast Transition of Normal Human Lung Fibroblasts (NHLF)
200,000 NHLF-cells were seeded into each well of six-well cell culture plates in full-medium and starved for 24 h after initial 24 h incubation at 37° C., 5% CO2 and 95% humidity. Before inducing fibroblast-to-myofibroblast conversion by adding 1 ng/mL human TGFβ serial dilution of test compound was administered. After 24 h the cells were collected and processed to lysates as described subsequently.
Cells were washed, twice in PBS, trypsinated and centrifuged at 500×g for 10 min. Afterwards the cell pellet was resuspended in 150 microL freshly prepared lysis buffer (50 mM Hepes, pH 7.5, 150 mM NaCl, 1.5 mM MgCl2, 10% […], 1% Triton X-100, 0.5% Desoxycholat, 0.2% SDS, 1 mM EGTA (ethylene glycol tetraacetic acid), 100 mM NaF, 10 mM Na4P2O7, 1 mM Na-Vanadat, 1 mM PMSF and 50 U/mL Benzonase (Merck KGaA, Darmstadt, Germany), one Phosphatase Inhibitor Cocktail tablet (Complete Mini from Roche Diagnostics, Mannheim, Germany) per 10 ml buffer and stored at −80° C. for further use. Protein concentration was determined following instructions of the BCA Protein Assay (Pierce Biotechnology, Rockford, Ill., USA). Photometric measurements were performed with the microplate reader Sunrise from Tecan Group Ltd., (Männedorf, Switzerland). 6 μg of protein of the different samples were separated on a 10% SDS (Sodium Dodecyl Sulfate) discontinuous polyacrylamide gel electrophoresis. Thereafter, proteins were blotted from the gel onto a nitrocellulose transfer membrane for 2 h at 400 mA in a wet-blot-chamber. Thereafter the membrane was blocked in 5% milkpowder in PBS (Phosphate Buffered Saline) containing 0.1% Tween 20 at 4° C. overnight. Subsequently the membrane was hybridized for 4 h with the primary anti-Alpha-smooth muscle actin antibody (1:2,000 in 5% milkpowder in PBS), washed three times in PBS containing 0.1% Tween 20. This was followed by incubation with the secondary horseradish-coupled goat anti-mouse IgG detection-antibody (1:10,000 in 5% milkpowder in PBS) for 2 h. After final washing with PBS containing 0.1% Tween 20 (three times for 10 min each) the blot was developed by using a chemiluminescence detection system according to the manufacturer instructions and a luminescent image analyzer (Fuji LAS 1000 Pro).
The numbers of the compounds correspond to the examples numbers.
A general note: In western blotting, separated proteins are transferred to a membrane and probed.

Test [2] deals with total leukocyte and neutrophil counts in bronchoalveolar lavage fluid. In words: In vivo assay: LPS-induced pulmonary inflammation model in rats. To be noted: Rattus norvegicus, po; p.o. 1 h prior to LPS aerosol; BAL cell counts 4 h after LPS. Details: species or system Sprague Dawley rats. As to the method: In Vivo Assay: LPS-Induced Pulmonary Inflammation Model in Rats
Exposure of rats to aerosolised lipopolysaccharide (LPS) causes a pulmonary mainly neutrophilic inflammation, which can be assessed by bronchoalveolar lavage (BAL). LPS-induced pulmonary inflammation models are robust and are commonly used for the evaluation of test compounds modulating the immediate immune response. Selective EP2 agonists are administered per oral 1 h prior nose-only LPS challenge in rats. The anti-inflammatory activity of the selective EP2 agonists is assessed based on pulmonary total leukocyte and neutrophil counts in the bronchoalveolar lavage fluid 4 h after LPS exposure.
Male Sprague Dawley rats weighing 250-300 g were used. Rats were delivered 1 week prior to the experiments and hadfree access to water and food.
The test compound was mixed with 1.33% polyethylenglycol 400 (PEG400, Merck, Darmstadt, Germany) and subsequently suspended in 2% methocel solution (hypromellose, Sigma, Steinheim, Germany) containing Antifoam C Emulsion (Sigma, Steinheim, Germany, 0.1 mL/15 mL) using a mixing device (ULTRA-TURRAX T8 basic, VDI12, VWR International GmbH). The aimed doses were prepared by dilution series from the stock suspension, which was prepared for the administration of the highest dose in each experiment.
The administered volume of the compound suspension was 10 mL/kg. On day of the experiment the rat body weights were documented to calculate the volume to be administered. LPS challenged and unchallenged control animals received compound-free vehicle solution as placebo. Test compounds and vehicle were administered by oral gavage 1 h prior to LPS challenge.
Conscious and restrained animals were connected to a nose-only exposure system (CR equipment SA, Tannay, Switzerland) and were exposed to the LPS aerosol for 30 min. The LPS-containing aerosol was generated using a compressed air driven medication nebulizer device (Pari LC Sprint Star, Pari GmbH, Starnberg, Germany). The LPS solution (E. coli, Serotype 055B5, Sigma-Aldrich, 1 mg/ml diluted in PBS) was prepared 30 minutes in advance. The aerosol was dispersed and transported to the exposure tower by a sheath air flow of 6001/h. All rats except negative controls were exposed to LPS.
4 hours after LPS challenge, animals were anesthetised by isoflurane and scarified by cervical dislocation. BALs were performed. For the BAL the trachea was exposed and cannulated, followed by gently lavaging the lungs two times in situ with 4 ml PBS buffer supplemented with 0.5% Bovine Serum Albumin (Serve, Darmstadt, Germany).
Determination of total leukocyte and neutrophil counts in BALF was performed with an automated leukocyte differentiation system (XT-2000iV, Sysmex, Norderstedt, Germany).
The baseline correction was done for each sample according to the formula: baseline-corrected cell count value=cell count−median (negative control group)
Suppression of LPS-induced total cell and neutrophil influx into the lungs was calculated in % using the medians of the cell counts of each treatment group in relation to the control groups according to the formula: % effect=(Y−K)/K*100 • With defining: • Y=median of the baseline-corrected compound treated group • K=median of the baseline-corrected vehicle treated group
Statistical analysis was performed on the primary cell count data using One-Way ANOVA and Dunnett's Multiple Comparison test vs. positive control.

Regarding `O=C(O)/C=C/c1cccc(NC(=O)c2cc(-c3ccccc3)cc3ccccc23)c1` [Example 1, (2E)-3-(3-{[(3-phenylnaphthalen-1-yl)carbonyl]amino}phenyl)prop-2-enoic acid], the half-inhibitory concentration (IC50) in test [1] was 0.316 to 3.16 nM. The 50% effective dose (ED50) in test [2] is 0.1 to 2 mg/kg. In the same order, the values of `O=C(O)/C=C/c1ccc(F)c(NC(=O)c2cc(-c3ccccc3)cc3ccccc23)c1` [Example 2, (2E)-3-(4-fluoro-3-{[(3-phenylnaphthalen-1-yl)carbonyl]amino}phenyl)prop-2-enoic acid] are 0.316 to 3.16 nM and 0.1 to 2 mg/kg. As to `O=C(O)/C=C/c1ccc(Cl)c(NC(=O)c2cc(-c3ccccc3)cc3ccccc23)c1` [Example 3, (2E)-3-(4-chloro-3-{[(3-phenylnaphthalen-1-yl)carbonyl]amino}phenyl)prop-2-enoic acid], in test [2], the median effective dose (ED50) is 0.1 to 2 mg/kg.

`O=C(O)/C=C/c1ccc(F)c(NC(=O)c2cc(-c3ccccc3F)cc3ccccc23)c1` [Example 9, (2E)-3-{3-[({3-[2-fluorophenyl]naphthalen-1-yl}carbonyl)amino]-4fluorophenyl}prop-2-enoic acid]: in test [1], the IC50 was 0.316 to 3.16 nM. In test [2], this compound returned a 50% effective dose (ED50) of 0.1 to 2 mg/kg. With `O=C(O)/C=C/c1ccc(F)c(NC(=O)c2cc(-c3cccc(F)c3)cc3ccccc23)c1` [Example 10, (2E)-3-{3-[({3-[3-fluorophenyl]naphthalen-1-yl}carbonyl)amino]-4fluorophenyl}prop-2-enoic acid], the IC50 in test [1] is 0.316 to 3.16 nM. This compound returned a 50% effective dose (ED50) in test [2] of 0.1 to 2 mg/kg.

Usually IC50 stands for the midpoint of a concentration-inhibition curve. For orientation: ED50 means the dose that gives a 50% effect, or the effect in half of the subjects. Read a low ED50 as greater potency.

The record behind these values is US9309187B2, “EP2 receptor agonists” (TAKEDA GMBH, priority 2012, dated 2016).
